From patent publication US9346809B2 (LEO PHARMA A/S, priority 2009, dated 2016)
Read-outs that look alike come from different tables or passages of the source.

Assays:
Type in all cases: biochemical
[1] = target: T1, JAK3 (catalytic domain, His-tag) (Homo sapiens, UniProt P52333); test: JAK kinase assay (HTRF, phosphorylation of TK substrate-biotin), JAK3; conditions: ATP at Km (2 μM)
T1 construct: All four purified enzymes contain only the catalytic domain; His (N); purchased Carna Biosciences, Inc; host or cells: baculovirus expression system
T1 sequence (P52333 822-1111 limits assumed): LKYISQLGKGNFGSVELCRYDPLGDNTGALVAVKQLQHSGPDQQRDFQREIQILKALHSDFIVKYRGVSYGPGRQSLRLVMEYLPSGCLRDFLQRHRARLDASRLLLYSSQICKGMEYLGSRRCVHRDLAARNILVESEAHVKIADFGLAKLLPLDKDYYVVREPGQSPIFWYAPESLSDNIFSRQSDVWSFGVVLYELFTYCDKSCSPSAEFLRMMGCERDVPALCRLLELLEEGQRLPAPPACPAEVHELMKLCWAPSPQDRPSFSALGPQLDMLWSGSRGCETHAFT
Summary of the method: (§1)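 HTRF KinEASE TK format; 1 μM biotinylated peptide, Km ATP: 7 μM (JAK1, 10 mM MgCl2, 50 nM SEB), 4 μM (JAK2), 2 μM (JAK3), 13 μM (TYK2, 50 nM SEB); 5 mM MgCl2 for the latter three. RT 20-30 min, 0.75% DMSO final. Overnight detection, EC50.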

[2] = target: T2, TYK2 (aa 871-1187, catalytic domain, GST-tag) (Homo sapiens, UniProt P29597); test: JAK kinase assay (HTRF, phosphorylation of TK substrate-biotin), TYK2; conditions: ATP at Km (13 μM)
T2 construct: JAK1 (aa 850-1154) and TYK2 (aa 871-1187) are expressed with an N-terminally fused GST-tag; GST (N); purchased Carna Biosciences, Inc; host or cells: baculovirus expression system
T2 sequence (P29597 871-1187): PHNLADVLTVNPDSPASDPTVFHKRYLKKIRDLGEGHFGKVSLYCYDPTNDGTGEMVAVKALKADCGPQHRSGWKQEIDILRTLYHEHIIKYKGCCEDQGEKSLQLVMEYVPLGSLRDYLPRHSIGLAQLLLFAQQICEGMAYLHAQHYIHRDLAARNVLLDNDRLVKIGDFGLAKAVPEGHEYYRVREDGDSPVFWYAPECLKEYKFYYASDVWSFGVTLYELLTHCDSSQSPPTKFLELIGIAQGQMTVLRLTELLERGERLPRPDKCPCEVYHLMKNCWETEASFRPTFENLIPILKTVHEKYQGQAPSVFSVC
Summary of the method: as §1

[3] = target: T3, JAK2 (catalytic domain, His-tag) (Homo sapiens, UniProt O60674); test: JAK kinase assay (HTRF, phosphorylation of TK substrate-biotin), JAK2; conditions: ATP at Km (4 μM)
T3 construct: All four purified enzymes contain only the catalytic domain; His (N); purchased Carna Biosciences, Inc; host or cells: baculovirus expression system
T3 sequence (O60674 849-1124 limits assumed): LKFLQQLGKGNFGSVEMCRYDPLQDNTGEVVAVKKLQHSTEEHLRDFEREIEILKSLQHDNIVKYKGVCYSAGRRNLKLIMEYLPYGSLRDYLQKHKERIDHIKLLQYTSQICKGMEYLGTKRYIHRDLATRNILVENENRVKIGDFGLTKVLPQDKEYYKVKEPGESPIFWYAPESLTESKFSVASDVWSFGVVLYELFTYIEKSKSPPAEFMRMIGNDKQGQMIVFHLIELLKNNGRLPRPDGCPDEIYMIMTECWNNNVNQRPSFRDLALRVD
Summary of the method: as §1

[4] = target: T4, JAK1 (aa 850-1154, catalytic domain, GST-tag) (Homo sapiens, UniProt P23458); test: JAK kinase assay (HTRF, phosphorylation of TK substrate-biotin), JAK1; conditions: ATP at Km (7 μM)
T4 construct: JAK1 (aa 850-1154) and TYK2 (aa 871-1187) are expressed with an N-terminally fused GST-tag; GST (N); purchased Carna Biosciences, Inc; host or cells: baculovirus expression system
T4 sequence (P23458 850-1154): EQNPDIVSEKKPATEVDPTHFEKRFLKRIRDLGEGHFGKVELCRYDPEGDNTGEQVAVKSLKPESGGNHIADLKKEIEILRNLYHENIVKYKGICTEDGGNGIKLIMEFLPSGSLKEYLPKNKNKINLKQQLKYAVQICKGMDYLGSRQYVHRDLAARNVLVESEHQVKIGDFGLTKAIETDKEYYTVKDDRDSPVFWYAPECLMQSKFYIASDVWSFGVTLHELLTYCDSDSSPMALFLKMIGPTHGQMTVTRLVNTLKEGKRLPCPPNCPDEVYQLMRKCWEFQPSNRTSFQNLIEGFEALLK
Summary of the method: as §1

[5] = read-out: JAK3 kinase inhibitory activity (EC50 indicator)
[6] = read-out: TYK2 kinase inhibitory activity (EC50 indicator)
[7] = read-out: JAK2 kinase inhibitory activity (EC50 indicator)
[8] = read-out: JAK1 kinase inhibitory activity (EC50 indicator)
[9] = HTRF assay, read-out: JAK3 kinase inhibitory activity (EC50 indicator)
[10] = HTRF assay, read-out: TYK2 kinase inhibitory activity (EC50 indicator)
[11] = HTRF assay, read-out: JAK2 kinase inhibitory activity (EC50 indicator)
[12] = HTRF assay, read-out: JAK1 kinase inhibitory activity (EC50 indicator)

Structure (SMILES) | EC50 [1, 5] [nM] | EC50 [2, 6] [nM] | EC50 [3, 7] [nM] | EC50 [4, 8] [nM] | other results
O=C(Cc1ccccc1)N1[C@@H]2CC[C@H]1CN(c1ncnc3[nH]ccc13)C2 [Example 32, 2-Phenyl-1-[3-(7H-pyrrolo[2,3-d]pyrimidin-4-yl)-3,8-diazabicyclo[3.2.1]oct-8-yl]ethanone] | > 500 | > 500 | 100 to 500 | 100 to 500 | 
O=C(c1ccc2sccc2c1)N1CCN(c2ncnc3[nH]ccc23)CC12CC2 [Example 106, Benzo[b]thiophen-5-yl-[7-(7H-pyrrolo[2,3-d]pyrimidin-4-yl)-4,7-diaza-spiro[2.5]oct-4-yl]-methanone] | 100 to 500 | 100 to 500 | < 100 | < 100 | 
O=C(c1cc2c(s1)CCC2)N1C2CCC1CN(c1ncnc3[nH]ccc13)C2 [Example 139, (5,6-Dihydro-4H-cyclopenta[b]thiophen-2-yl)-[3-(7H-pyrrolo[2,3-d]pyrimidin-4-yl)-3,8-diaza-bicyclo[3.2.1]oct-8-yl]-methanone] | 100 to 500 | > 500 | < 100 | < 100 | 
CC#CCOC(=O)N1CCN(c2ncnc3[nH]ccc23)CC12CC2 [Example 89, 7-(7H-Pyrrolo[2,3-d]pyrimidin-4-yl)-4,7-diaza-spiro[2.5]octane-4-carboxylic acid but-2-ynyl ester] | 100 to 500 | > 500 | < 100 | < 100 | 
O=C(NC1CCCCC1)N1CCN(c2ncnc3[nH]ccc23)CC12CC2 [Example 436, 7-(7H-Pyrrolo[2,3-d]pyrimidin-4-yl)-4,7-diaza-spiro[2.5]octane-4-carboxylic acid cyclohexylamide] |  |  |  |  | EC50 ([1]; HTRF assay, read-out: JAK3 kinase inhibitory activity (EC50)): < 100 nM; EC50 ([2]; HTRF assay, read-out: TYK2 kinase inhibitory activity (EC50)): 100 to 500 nM; EC50 ([3]; HTRF assay, read-out: JAK2 kinase inhibitory activity (EC50)): < 100 nM; EC50 ([4]; HTRF assay, read-out: JAK1 kinase inhibitory activity (EC50)): < 100 nM
COc1cnc2[nH]ccc2c1N1CCN(C(=O)c2cc3cc(C#N)ccc3[nH]2)C2(CC2)C1 [Example 291, 2-[7-(5-Methoxy-1H-pyrrolo[2,3-b]pyridin-4-yl)-4,7-diaza-spiro[2.5]octane-4-carbonyl]-1H-indole-5-carbonitrile] |  |  |  |  | EC50 [1, 9]: 100 to 500 nM; EC50 [2, 10]: > 500 nM; EC50 [3, 11]: > 500 nM; EC50 [4, 12]: > 500 nM
O=C(c1ccccn1)N1CCN(c2ccnc3[nH]ccc23)CC12CC2 [Example 222, Pyridin-2-yl-[7-(1H-pyrrolo[2,3-b]pyridin-4-yl)-4,7-diaza-spiro[2.5]oct-4-yl]-methanone] |  |  |  |  | EC50 [1, 9]: > 500 nM; EC50 [2, 10]: > 500 nM; EC50 [3, 11]: 100 to 500 nM; EC50 [4, 12]: 100 to 500 nM
N#Cc1ccc(CC(=O)N2CCN(c3nc(NC(=O)c4ccccc4)nc4[nH]ccc34)CC23CC3)cc1 [Example 98, N-(4-{4-[2-(4-Cyano-phenyl)-acetyl]-4,7-diaza-spiro[2.5]oct-7-yl}-7H-pyrrolo[2,3-d]pyrimidin-2-yl)-benzamide] | > 500 | > 500 | > 500 | > 500 | 
O=C(OCc1ccccc1)N1[C@@H]2CC[C@H]1CN(c1ncnc3[nH]ccc13)C2 [Example 58, 3-(7H-Pyrrolo[2,3-d]pyrimidin-4-yl)-3,8-diazabicyclo[3.2.1]octane-8-carboxylic acid benzyl ester] | 100 to 500 | > 500 | < 100 | < 100 | 
O=C(c1cccc(OC(F)(F)F)c1)N1CCN(c2ncnc3[nH]ccc23)CC12CC2 [Example 160, [7-(7H-Pyrrolo[2,3-d]pyrimidin-4-yl)-4,7-diaza-spiro[2.5]oct-4-yl]-(3-trifluoromethoxy-phenyl)-methanone] | 100 to 500 | 100 to 500 | < 100 | < 100 | 
O=C(Cc1c[nH]c2ccccc12)N1CCN(c2ncnc3[nH]ccc23)CC12CC2 [Example 14, 2-(1H-Indol-3-yl)-1-[7-(7H-pyrrolo[2,3-d]pyrimidin-4-yl)-4,7-diazaspiro[2.5]oct-4-yl]ethanone] | 100 to 500 | > 500 | < 100 | 100 to 500 | 
O=C(c1ccc(S(=O)(=O)C2CCCC2)cc1)N1CCN(c2ncnc3[nH]ccc23)CC12CC2 [Example 407, (4-Cyclopentanesulfonyl-phenyl)-[7-(7H-pyrrolo[2,3-d]pyrimidin-4-yl)-4,7-diaza-spiro[2.5]oct-4-yl]-methanone] |  |  |  |  | EC50 [1, 9]: > 500 nM; EC50 [2, 10]: > 500 nM; EC50 [3, 11]: < 100 nM; EC50 [4, 12]: < 100 nM
CS(=O)(=O)c1ccc2[nH]c(C(=O)N3CCN(c4ncnc5[nH]ccc45)CC34CC4)cc2c1 [Example 365, (5-Methanesulfonyl-1H-indol-2-yl)-[7-(7H-pyrrolo[2,3-d]pyrimidin-4-yl)-4,7-diaza-spiro[2.5]oct-4-yl]-methanone] |  |  |  |  | EC50 [1, 9]: < 100 nM; EC50 [2, 10]: < 100 nM; EC50 [3, 11]: < 100 nM; EC50 [4, 12]: < 100 nM
O=C(c1cnc2ccccc2c1)N1CCN(c2ncnc3[nH]ccc23)CC12CC2 [Example 163, [7-(7H-Pyrrolo[2,3-d]pyrimidin-4-yl)-4,7-diaza-spiro[2.5]oct-4-yl]-quinolin-3-yl-methanone] | > 500 | 100 to 500 | < 100 | < 100 | 
O=C(CCc1ccccc1)N1[C@@H]2CC[C@@H]1CN(c1ncnc3[nH]ccc13)C2 [Example 168, 3-Phenyl-1-[3-(7H-pyrrolo[2,3-d]pyrimidin-4-yl)-3,8-diaza-bicyclo[3.2.1]oct-8-yl]-propan-1-one] | 100 to 500 | > 500 | < 100 | < 100 | 
O=C(c1ccc(CO)cc1)N1CCN(c2ncnc3[nH]ccc23)CC12CC2 [Example 155, (4-Hydroxymethyl-phenyl)-[7-(7H-pyrrolo[2,3-d]pyrimidin-4-yl)-4,7-diaza-spiro[2.5]oct-4-yl]-methanone] | 100 to 500 | 100 to 500 | < 100 | < 100 | 
O=C(Cc1cccnc1)N1CCN(c2ncnc3[nH]ccc23)CC12CC2 [Example 4, 2-Pyridin-3-yl-1-[7-(7H-pyrrolo[2,3-d]pyrimidin-4-yl)-4,7-diazaspiro[2.5]oct-4-yl]ethanone] | 100 to 500 | > 500 | < 100 | 100 to 500 | 
Cc1ccc(C(=O)N2CCN(c3ncnc4[nH]ccc34)CC23CC3)s1 [Example 91, (5-Methyl-thiophen-2-yl)-[7-(7H-pyrrolo[2,3-d]pyrimidin-4-yl)-4,7-diaza-spiro[2.5]oct-4-yl]-methanone] | < 100 | < 100 | < 100 | < 100 | 
CS(=O)(=O)c1ccc(CC(=O)N2C3CCC2CN(c2ncnc4[nH]ccc24)C3)cc1 [Example 134, 2-(4-Methanesulfonyl-phenyl)-1-[3-(7H-pyrrolo[2,3-d]pyrimidin-4-yl)-3,8-diaza-bicyclo[3.2.1]oct-8-yl]-ethanone] | > 500 | > 500 | 100 to 500 | 100 to 500 | 
Cc1ccsc1C(=O)N1CCN(c2ncnc3[nH]ccc23)CC12CC2 [Example 90, (3-Methyl-thiophen-2-yl)[7-(7H-pyrrolo[2,3-d]pyrimidin-4-yl)-4,7-diaza-spiro[2.5]oct-4-yl]-methanone] | 100 to 500 | 100 to 500 | < 100 | < 100 | 
COc1cc(C(=O)N2CCN(c3ncnc4[nH]ccc34)CC23CC3)cs1 [Example 384, (5-Methoxy-thiophen-3-yl)-[7-(7H-pyrrolo[2,3-d]pyrimidin-4-yl)-4,7-diaza-spiro[2.5]oct-4-yl]-methanone] |  |  |  |  | EC50 [1, 9]: < 100 nM; EC50 [2, 10]: < 100 nM; EC50 [3, 11]: < 100 nM; EC50 [4, 12]: < 100 nM
CC(C)CNC(=S)N1[C@@H]2CC[C@H]1CN(c1ncnc3[nH]ccc13)C2 [Example 10, 3-(7H-Pyrrolo[2,3-d]pyrimidin-4-yl)-3,8-diaza-bicyclo[3.2.1]octane-8-carbothioic acid isobutyl-amide] | > 500 | > 500 | 100 to 500 | 100 to 500 | 
O=C(c1cccc(-c2ccccc2)c1)N1CCN(c2ncnc3[nH]ccc23)CC12CC2 [Example 6, Biphenyl-3-yl-[7-(7H-pyrrolo[2,3-d]pyrimidin-4-yl)-4,7-diazaspiro[2.5]oct-4-yl]methanone] | 100 to 500 | 100 to 500 | < 100 | < 100 | 
